Results from ChEMBL document CHEMBL4699397, “Development of potent CPP6-gemcitabine conjugates against human prostate cancer cell line (PC-3)” (RSC Med Chem, 2020).
*1 amine or outer side, *2 acyl side, *3 side chain or, on linkers, in order; H or OH if unused. Where a SMILES comes first, the peptide text is derived from it. The star is where a group is joined. X1 = O=c1nc(N*)ccn1[C@@H]1O[C@H](CO)[C@@H](O)C1(F)F; Suc = O=C(CCC(=O)[*:2])[*:1]

Experiments:
BXPC-3 = test: Cytotoxicity against human BXPC-3 cells assessed as inhibition of cell growth measured after 72 hrs by SRB assay; type: functional, cell-based; conditions: BXPC-3, 72 h
MCF7 = test: Cytotoxicity against human MCF7 cells assessed as inhibition of cell growth measured after 72 hrs by MTT assay; type: functional, cell-based; conditions: MCF7, 72 h
PC-3 = test: Cytotoxicity against human PC-3 cells assessed as inhibition of cell growth measured after 72 hrs by MTT assay; type: functional, cell-based; conditions: PC-3, 72 h
[1] = Half life of the compound; type: physicochemical

half-life [1] [min]	Compound	IC50 (BXPC-3) [nM]	IC50 (MCF7) [nM]	IC50 (PC-3) [nM]
–	CSCC[C@H](NC(=O)[C@@H](NC(=O)[C@@H]1CCCN1C(=O)[C@H](CC(C)C)NC(=O)[C@H](CCCCN)NC(=O)[C@@H](N)Cc1c[nH]c2ccccc12)C(C)C)C(N)=O	> 1000	223	> 1000
–	CSCC[C@H](NC(=O)[C@@H](NC(=O)[C@@H]1CCCN1C(=O)[C@H](CC(C)C)NC(=O)[C@H](CCCCN)NC(=O)CCC(=O)Nc1ccn([C@@H]2O[C@H](CO)[C@@H](O)C2(F)F)c(=O)n1)C(C)C)C(=O)N[C@@H](Cc1c[nH]c2ccccc12)C(N)=O ({X1-Suc}-KLPVMW-NH2)	170	6.9	> 1000
–	CSCC[C@H](NC(=O)[C@@H](NC(=O)[C@@H]1CCCN1C(=O)[C@H](CC(C)C)NC(=O)[C@H](CCCCN)NC(=O)[C@H](Cc1c[nH]c2ccccc12)NC(=O)CCC(=O)Nc1ccn([C@@H]2O[C@H](CO)[C@@H](O)C2(F)F)c(=O)n1)C(C)C)C(N)=O ({X1-Suc}-WKLPVM-NH2)	180	5.1	15
–	CC(C)C[C@H](NC(=O)[C@@H](NC(=O)[C@@H]1CCCN1C(=O)[C@@H](NC(=O)[C@H](Cc1c[nH]c2ccccc12)NC(=O)CCC(=O)Nc1ccn([C@@H]2O[C@H](CO)[C@@H](O)C2(F)F)c(=O)n1)C(C)C)[C@@H](C)O)C(=O)N[C@@H](CCCCN)C(N)=O ({X1-Suc}-WVPTLK-NH2)	200	4	14
8	Nc1ccn([C@@H]2O[C@H](CO)[C@@H](O)C2(F)F)c(=O)n1 [GEMCITABINE]	130	1.4	74
–	CN(C)C(=N)NC(=N)N [METFORMIN]	–	9.9	189
–	CC/C(=C(\c1ccccc1)c1ccc(OCCN(C)C)cc1)c1ccccc1 [TAMOXIFEN]	–	–	> 1000
–	H-KLPVMW-NH2	> 1000	> 1000	> 1000
–	H-WVPTLK-NH2	> 1000	> 1000	> 1000
